The results in this text go back to patent US8883737B2, “Methods of treating cancer” (Endocyte, Inc., priority 2010, dated 2014).

Values joined by “and” are separate entries in the source; they are usually repeats but may differ in a detail not shown here. Identical values can stand only once. Like-named read-outs stand apart in the source and are kept apart here.

The subject of one assay is KB tumors. Description: In vivo antitumor experiments, s.c. KB tumors. Details: species or system nu/nu mice. On the procedure:
(§1) Four to six week-old female nu/nu mice (Charles River, Wilmington, Mass.) or six to seven week-old female Balb/c mice (Harlan Sprague Dawley, Inc., Indianapolis, Ind.) or four to six week-old female DBA mice (Harlan Sprague Dawley, Inc., Indianapolis, Ind.) were maintained on a standard 12 h light-dark cycle and fed ad libitum with folate-deficient chow (Harlan diet #TD00434, Harlan Teklad, Madison, Wis.) for the duration of the experiment. FR-positive human nasopharyngeal KB cells, human ovarian IGR-OV1 cells, human ovarian OV90 cells and syngeneic mouse lymphocytic leukemia L1210 cells were grown continuously as a monolayer, using folate-free RPMI medium (FFRPMI) containing 10% heat-inactivated fetal calf serum (HIFCS) at 37° C. in a 5% CO2/95% air-humidified atmosphere with no antibiotics. Syngeneic FR-positive Madison 109 (M109) lung carcinoma cells were generated from M109 tumors and cultured for a few days in FFRPMI containing 10% HIFCS for a few days before implantation in mice. KB cells (1×10^6 per nu/nu mouse), M109 cells (1×10^6 per Balb/c mouse), IGR-OV1 cells (4×10^6 per nu/nu mouse) or OV90 cells (1×10^6 per nu/nu mouse) or L1210 cells (2×10^5 per DBA mouse) in 100 μL were injected in the subcutis of the dorsal medial area. Mice were divided into groups of five, and test articles were freshly prepared and injected through the lateral tail vein under sterile conditions in a volume of 200 μL of phosphate-buffered saline (PBS). Intravenous (i.v.) treatments were typically initiated when the tumors were approximately 100-200 mm^3 in volume. The mice in the control groups received no treatment. Growth of each s.c. tumor was followed by measuring the tumor three times per week during treatment and twice per week thereafter until a volume of 1500 mm^3 was reached. Tumors were measured in two perpendicular directions using Vernier calipers, and their volumes were calculated as 0.5×L×W^2, where L=measurement of longest axis in mm and W=measurement of axis perpendicular to L in mm. As a general measure of toxicity, changes in body weights were determined on the same schedule as tumor volume measurements. Survival of animals was monitored daily. Animals that were moribund (or unable to reach food or water) were euthanized by CO2 asphyxiation. All in vivo studies were performed in accordance with the American Accreditation Association of Laboratory Animal Care guidelines.
(§2) For individual tumors, a partial response (PR) was defined as volume regression >50% but with measurable tumor (>2 mm^3) remaining at all times. Complete response (CR) was defined as a disappearance of measurable tumor mass (<2 mm^3) at some point until the end of the study. A cure was defined as a CR without tumor re-growth within the study time frame.

A further assay relates to KB tumor cells. Put plainly: Cell growth inhibition (3H-thymidine), KB tumor cells. The following applies: Homo sapiens, FIG. 31, read-out: In vitro cytotoxicity IC50. It is filed as cell-based. On the procedure:
Exponentially growing KB or J6456 cells were seeded in 24-well plates 24 h before treatment with drugs. […] Cells treated with vindesine, DAVLBH or doxorubicin alone were treated for 72 h. A total of five drug concentrations for each drug plus a drug-free control were evaluated. Cells were then treated with fresh medium containing ^3H-thymidine for 2 h at 37° C. Cells were further washed with PBS and treated with ice-cold 5% trichloroacetic acid. After 15 min, the trichloroacetic acid was aspirated and the cells solubilized by the addition of 0.25 N sodium hydroxide for 15 min at room temperature. Each solubilized sample was transferred to scintillation vials containing Ecolume scintillation cocktail and counted in a liquid scintillation counter. […]

The test system of a further assay is M109 tumors. Put plainly: In vivo antitumor experiments, s.c. M109 tumors. On the set-up: species or system Balb/c mice. The following applies: five animals per group. On the procedure: as §1, §2
Assay [1] relates to IGR-OV1 cells. The following applies: FIG. 53, EC145 with or without Lapatinib.
Assay [2] relates to OV90 cells. The following applies: FIG. 53, EC145 with or without Lapatinib.
A further assay has as its system RAW cells. Put plainly: Cell growth inhibition, RAW cells. To be noted: FIG. 49. It is filed as cell-based.
Assay [3] relates to IGR-OV1 cells. Description: cells. To be noted: Homo sapiens, IGROV-1.
Assay [4] concerns OV90 cells. Put plainly: cells. The following applies: Homo sapiens, OV-90.
Setting [5] is: FIG. 14, M109 tumors 86-149 mm^3, EC145 alone 2 μmol/kg/injection TIW 2 weeks (1 μmol/kg in combination), Gemcitabine 40 mg/kg BIW 5 doses.
Where [6] appears, read: FIG. 16, M109 tumors 99-164 mm^3, EC145 alone 2 μmol/kg/injection TIW 2 weeks (1 μmol/kg in combination), Tarceva 100 mg/kg qd5 2 weeks.
Setting [7] is: FIG. 10, KB tumors 114-177 mm^3, five animals per group, EC145 1 μmol/kg/injection TIW 2 weeks, Irinotecan 40 mg/kg BIW 2 weeks.
Where [8] appears, read: FIG. 12, KB tumors 108-222 mm^3, five animals per group, EC145 1 μmol/kg/injection TIW 2 weeks, Avastin 5 mg/kg BIW 2 weeks.

Usually IC50 stands for the concentration needed to halve the response being measured.

Turning to `N.N.O=C([O-])C1(C(=O)[O-])CCC1.[Pt+2]` [Carboplatin, carboplatin], the partial responses in the assay with KB tumors (FIG. 1, KB tumors 109-188 mm^3, five animals per group, EC145 1 μmol/kg/injection TIW 2 weeks, Carboplatin 50 mg/kg TIW 1 week) was 3.
Molecule `N.N.[Cl][Pt][Cl]` [Cisplatin, cisplatin] returned a partial responses in the assay on KB tumors (mouse, in vivo) of 2.
Regarding `CC[C@]1(O)C[C@@H]2CN(CCc3c([nH]c4ccccc34)[C@@](C(=O)OC)(c3cc4c(cc3OC)N(C)[C@H]3[C@@](O)(C(=O)NN)[C@H](O)[C@]5(CC)C=CCN6CC[C@]43[C@@H]65)C2)C1` [DAVLBH, desacetylvinblastine hydrazide], the “effect of unconjugated DAVLBH on Doxil activity” value in the assay on KB tumors (FIG. 27, DAVLBH 0.75 μmol/kg/injection TIW 2 weeks + DOXIL 5 mg/kg BIW 2 weeks) is “antagonizes Doxil activity”.
Turning to `COc1cccc2c1C(=O)c1c(O)c3c(c(O)c1C2=O)C[C@@](O)(C(=O)CO)C[C@@H]3O[C@H]1C[C@H](N)[C@H](O)[C@H](C)O1` [Doxorubicin, doxorubicin], the IC50 in the assay on KB tumor cells was 0.034 µM.
With `CC[C@]1(O)C[C@H]2CN(CCc3c([nH]c4ccccc34)[C@@](C(=O)OC)(c3cc4c(cc3OC)N(C)[C@H]3[C@@](O)(C(=O)NNC(=O)OCCSSC[C@H](NC(=O)[C@H](CC(=O)O)NC(=O)[C@H](CC(=O)O)NC(=O)[C@H](CCCNC(=N)N)NC(=O)[C@H](CC(=O)O)NC(=O)CC[C@H](NC(=O)c5ccc(NCc6cnc7nc(N)[nH]c(=O)c7n6)cc5)C(=O)O)C(=O)O)[C@H](O)[C@]5(CC)C=CCN6CC[C@]43[C@@H]65)C2)C1` [EC145], the complete responses was found to be 0 in the assay with KB tumors (mouse, in vivo); 0 in the assay with M109 tumors (setting [5]); 0 in the assay with M109 tumors (setting [6]). In addition, the Cures with M109 tumors (setting [5]) was 2; in the assay on M109 tumors (setting [6]) it was 0; with M109 tumors (FIG. 40, M109 tumors, EC145 1 μmol/kg/injection TIW 2 weeks, DOXIL 4 mg/kg BIW 2 weeks) it was 3/5 and 3. For the same molecule, the partial responses in the assay with M109 tumors (setting [5]) and with M109 tumors (setting [6]) was 0 in each case. Moreover, the values for the IC50 with IGR-OV1 cells [1] and with OV90 cells [2] were 0.00358 µM and 0.329 µM, respectively.
Take `Nc1ccn([C@@H]2O[C@H](CO)[C@@H](O)C2(F)F)c(=O)n1` [Gemcitabine, gemcitabine]: in the assay on M109 tumors (setting [5]), the Cures entry is reported as “no”, the complete responses result is “no” and the partial responses entry is reported as “no”.
On to `CCc1c2c(nc3ccc(OC(=O)N4CCC(N5CCCCC5)CC4)cc13)-c1cc3c(c(=O)n1C2)COC(=O)[C@]3(O)CC` [Irinotecan, irinotecan], for which, in the assay on KB tumors (setting [7]), the Cures entry is given as “no”, the complete responses result is “no” and the partial responses entry was “no”.
As to `CS(=O)(=O)CCNCc1ccc(-c2ccc3ncnc(Nc4ccc(OCc5cccc(F)c5)c(Cl)c4)c3c2)o1` [Lapatinib, lapatinib], the results for the IC50 in the assay with RAW cells, with IGR-OV1 cells [3] and in the assay on OV90 cells [4] were 2.85 µM, 1.75 µM and 2.46 µM, respectively.
On to `C#Cc1cccc(Nc2ncnc3cc(OCCOC)c(OCCOC)cc23)c1` [Tarceva, erlotinib], for which, in the assay on M109 tumors (setting [6]), the Cures result was “no”, the complete responses entry is “no” and the partial responses entry is “no”.
`CC[C@@]1(O)C(=O)OCc2c1cc1n(c2=O)Cc2cc3c(CN(C)C)c(O)ccc3nc2-1` [Topotecan, topotecan]: in the assay with KB tumors (FIG. 5, KB tumors 144-204 mm^3, five animals per group, EC145 1 μmol/kg/injection TIW 2 weeks, Topotecan 5 mg/kg TIW 2 weeks), the Cures result is “no”.
With `CC[C@]1(O)C[C@@H]2CN(CCc3c([nH]c4ccccc34)[C@@](C(=O)OC)(c3cc4c(cc3OC)N(C)[C@H]3[C@@](O)(C(N)=O)[C@H](O)[C@]5(CC)C=CCN6CC[C@]43[C@@H]65)C2)C1` [vindesine], the “effect of unconjugated vindesine on Doxil activity” value in the assay with KB tumors (FIG. 25/26, vindesine 1 mg/kg/injection TIW 2 weeks + DOXIL 5 mg/kg BIW 2 weeks) was “antagonizes Doxil activity”.
As for bevacizumab [Avastin], in the assay on KB tumors (setting [8]), the Cures entry is “no”, the complete responses result is recorded as “no” and the partial responses entry is recorded as “no”.
